The assay has as its target T1, ClC-3 (long-ClC-3A) (Homo sapiens, UniProt P51790).
T1 sequence (P51790 1-818): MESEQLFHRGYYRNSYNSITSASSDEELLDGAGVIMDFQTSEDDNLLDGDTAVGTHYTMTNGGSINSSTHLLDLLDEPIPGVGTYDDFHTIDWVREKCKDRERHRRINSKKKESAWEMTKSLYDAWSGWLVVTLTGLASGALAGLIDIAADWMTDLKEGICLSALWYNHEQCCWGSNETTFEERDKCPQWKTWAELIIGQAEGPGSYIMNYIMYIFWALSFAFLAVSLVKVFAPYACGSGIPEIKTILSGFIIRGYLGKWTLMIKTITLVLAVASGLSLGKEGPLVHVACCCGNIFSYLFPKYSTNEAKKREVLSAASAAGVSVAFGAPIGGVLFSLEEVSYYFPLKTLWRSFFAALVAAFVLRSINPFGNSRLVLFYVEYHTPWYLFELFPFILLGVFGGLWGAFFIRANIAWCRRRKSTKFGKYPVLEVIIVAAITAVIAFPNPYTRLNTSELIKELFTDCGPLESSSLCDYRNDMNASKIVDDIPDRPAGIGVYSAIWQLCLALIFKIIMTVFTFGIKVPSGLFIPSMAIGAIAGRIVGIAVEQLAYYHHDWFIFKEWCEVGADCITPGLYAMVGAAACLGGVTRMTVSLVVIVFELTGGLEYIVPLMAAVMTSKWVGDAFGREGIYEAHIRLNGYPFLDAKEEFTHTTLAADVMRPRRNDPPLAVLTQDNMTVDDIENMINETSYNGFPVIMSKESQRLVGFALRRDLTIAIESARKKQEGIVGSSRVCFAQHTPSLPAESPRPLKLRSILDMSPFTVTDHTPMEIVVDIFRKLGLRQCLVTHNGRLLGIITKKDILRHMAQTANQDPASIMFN
Description: whole-cell patch clamp, inhibitor in pipette. Type of assay: cell-based. On the technique in general: The patch-clamp technique gives a direct electrical read-out from membranes.

`O=P(O)(O)O[C@H]1[C@H](OP(=O)(O)O)[C@@H](OP(=O)(O)O)[C@@H](O)[C@@H](O)[C@@H]1OP(=O)(O)O` [Ins(3,4,5,6)P4] gave an IC50 of 4.6 µM.

Usually IC50 stands for the concentration that inhibits the measured activity by half. Low readings indicate inhibition by little substance, high ones a need for much substance.

These data come from publication PMC2631652 (Current biology : CB, 2008).
